Measured values as given in PubChem BioAssay AID1963959 (Molecular Pharmacology Branch, DTP, NCI, 2024).
Where “and” joins values, the source holds several entries; their conditions need not be identical. Equal entries are not always repeated.

Tested on: T-47D spheroids with HUVEC/MSC, viability
Test: Anticancer human tumor T-47D cell line growth inhibition [PI3K];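 note: spheroids exposed to agents for seven days before reading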;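 for viability, T/C: percent of DMSO vehicle control luminescence so 100% = untreated growth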
Conditions: for viability, T/C: stronger effect = lower value; active = viability on the fitted dose curve at most 10% of control; inactive = the rest
Text: Combinatorial screen of targeted agents with the PI3K inhibitors inavolisib, alpelisib, duvelisib, and copanlisib in multi-cell type tumor spheroids
A high-throughput screen of multi-cell type tumor spheroids was designed to identify active combinations of targeted small molecules and PI3K pathway inhibitors. Complex spheroids include a stromal component modeled by human endothelial cells (HUVEC) and fibroblasts modeled by human mesenchymal stem cells (MSCs). The concentration ranges selected for each drug and investigational agent were based upon clinically achievable concentrations if the clinical Cmax of the agent was known.
Compounds. The drugs and investigational agents: inavolisib (NSC800729), alpelisib (NSC765974), duvelisib (NSC772469), copanlisib (NSC816437), ipatasertib (NSC767898), afuresertib (NSC778305), talazoparib (NSC767125), sapanisertib (NSC764658), selumetinib (NSC741078), tovorafenib (DAY101, NSC766906), vemurafenib (NSC761431), ravoxertinib (NSC781343), sotorasib (NSC818433), MRTX1133 (NSC 836407), abemaciclib (NSC 768073), palbociclib (NSC758247), venetoclax (NSC 766270), SY5609 (NSC837396), enzalutamide (NSC755605), and darolutamide (NSC825331), were obtained from the National Cancer Institute (NCI) Developmental Therapeutics Program Chemical Repository. The FDA-approved anticancer drug set is available from the NCI Developmental Therapeutics Program. […] The stock solutions were prepared in dimethyl sulfoxide (DMSO, Sigma-Aldrich, St. Louis, MO, cat. D2650) at 800-fold the tested concentration and stored at -70 degrees C prior to their use. All drugs and investigational agents were tested over a range starting from a high concentration at or near the clinical Cmax and decreasing in half-log increments. If the clinical Cmax for an agent had not been determined, the highest concentration tested was 10 microM.
Cell Culture. All cells were maintained in an incubator at 37 degrees C and 5% CO2 with 95% humidity. The PDC lines were cultured according to standard operating procedures established by the NCI PDMR (https://pdmr.cancer.gov/sops/default.htm). All PDCs were thawed and cultured in Matrigel-coated flasks prepared with a working solution of 1X Ham's F-12 nutrient mix, without supplementation (Invitrogen, Waltham, MA, cat. 11765054), 100 U/mL penicillin-streptomycin (Invitrogen, cat. 15140122), and 2.5% Matrigel (Corning Inc., Corning, NY, cat. 354248) for the first three passages. The 354836-022-R-J1-PDC, 475296-252-R-J1-PDC, and 997726-040-R-J2-PDC lines were cultured in 6A media, which includes advanced DMEM/F-12 (Thermo Fisher Scientific, cat. 12634028), 10 mM HEPES (Thermo Fisher Scientific, cat. 15630080), 1X GlutaMAX supplement (Thermo Fisher Scientific, cat. 35050061), 0.1 mg/mL primocin (InvivoGen, San Diego, CA, cat. ant-pm-2), 10% defined fetal bovine serum, heat inactivated (HyClone Laboratories Inc., Logan, UT, cat. SH30070.03HI), 50% L-WRN conditioned media (ATCC, cat. CRL-3276), 1.25 mM N-Acetyl-L-cysteine (Sigma-Aldrich, cat. A9165), 10 mM nicotinamide (Sigma-Aldrich, cat. N0636), 1X B-27 supplement (Thermo Fisher Scientific, cat. 17504044), 1X N-2 supplement (Thermo Fisher Scientific, cat. 17502048), and 10 microM Y-27632 dihydrochloride (Tocris Bioscience, Bristol, United Kingdom, cat. 1254). The 624824-186-R-J2-PDC line was cultured in 6C/Colon 1B media, which includes all 6A media components plus 50 ng/mL human EGF recombinant protein (Thermo Fisher Scientific, cat. PHG0311). […]

[1] = curve of first compound, second compound 0.0316 µM
[2] = curve of first compound, second compound 0.1 µM
[3] = curve of first compound, second compound 0.316 µM
[4] = curve of first compound, second compound 1 µM
[5] = curve of first compound, second compound 3.16 µM
[6] = curve of first compound, second compound 10 µM

Cn1cnc2c(F)c(Nc3ccc(Br)cc3Cl)c(C(=O)NOCCO)cc21 + CC(Nc1ncnc2nc[nH]c12)c1cc2cccc(Cl)c2c(=O)n1-c1ccccc1
> 3 µM: IC50 [1] | IC50 [2] | IC50 [3] | IC50 [4] | IC50 [5] | IC50 [6]
inactive: viability, T/C (second compound 0.0316 µM, first compound 0.00949 µM) 104% | viability, T/C (second compound 0.0316 µM, first compound 0.03 µM) 93.4% | viability, T/C (second compound 0.0316 µM, first compound 0.0949 µM) 100% | viability, T/C (second compound 0.0316 µM, first compound 0.3 µM) 81% | viability, T/C (second compound 0.0316 µM, first compound 0.949 µM) 84.2% | viability, T/C (second compound 0.0316 µM, first compound 3 µM) 77.1% | viability, T/C (second compound 0.1 µM, first compound 0.00949 µM) 94.6% | viability, T/C (second compound 0.1 µM, first compound 0.03 µM) 86% | viability, T/C (second compound 0.1 µM, first compound 0.0949 µM) 87.8% | viability, T/C (second compound 0.1 µM, first compound 0.3 µM) 83.8% | viability, T/C (second compound 0.1 µM, first compound 0.949 µM) 93.2% | viability, T/C (second compound 0.1 µM, first compound 3 µM) 102% | viability, T/C (second compound 0.316 µM, first compound 0.00949 µM) 73.4% | viability, T/C (second compound 0.316 µM, first compound 0.03 µM) 83.2% | viability, T/C (second compound 0.316 µM, first compound 0.0949 µM) 79.7% | viability, T/C (second compound 0.316 µM, first compound 0.3 µM) 83.9% | viability, T/C (second compound 0.316 µM, first compound 0.949 µM) 82% | viability, T/C (second compound 0.316 µM, first compound 3 µM) 75.2% | viability, T/C (second compound 1 µM, first compound 0.00949 µM) 96.9% | viability, T/C (second compound 1 µM, first compound 0.03 µM) 104% | viability, T/C (second compound 1 µM, first compound 0.0949 µM) 86.1% | viability, T/C (second compound 1 µM, first compound 0.3 µM) 94.8% | viability, T/C (second compound 1 µM, first compound 0.949 µM) 75% | viability, T/C (second compound 1 µM, first compound 3 µM) 79.3% | viability, T/C (second compound 3.16 µM, first compound 0.00949 µM) 79.3% | viability, T/C (second compound 3.16 µM, first compound 0.03 µM) 94.9% | viability, T/C (second compound 3.16 µM, first compound 0.0949 µM) 85.2% | viability, T/C (second compound 3.16 µM, first compound 0.3 µM) 95.5% | viability, T/C (second compound 3.16 µM, first compound 0.949 µM) 80.2% | viability, T/C (second compound 3.16 µM, first compound 3 µM) 82.5% | viability, T/C (second compound 10 µM, first compound 0.00949 µM) 78.3% | viability, T/C (second compound 10 µM, first compound 0.03 µM) 82.2% | viability, T/C (second compound 10 µM, first compound 0.0949 µM) 71.3% | viability, T/C (second compound 10 µM, first compound 0.3 µM) 69.3% | viability, T/C (second compound 10 µM, first compound 0.949 µM) 80.9% | viability, T/C (second compound 10 µM, first compound 3 µM) 79.9%

C#Cc1c(F)ccc2cc(O)cc(-c3ncc4c(N5CC6CCC(C5)N6)nc(OCC56CCCN5CC(F)C6)nc4c3F)c12 (centres undefined) + Cc1nc(NC(=O)N2CCCC2C(N)=O)sc1-c1ccnc(C(C)(C)C(F)(F)F)c1
< 0.0316 µM: IC50 [6]
> 10 µM: IC50 [1] | IC50 [2] | IC50 [3] | IC50 [4] | IC50 [5]
inactive: viability, T/C (second compound 0.0316 µM, first compound 0.0316 µM) 94.8% | viability, T/C (second compound 0.0316 µM, first compound 0.1 µM) 91.4% | viability, T/C (second compound 0.0316 µM, first compound 0.316 µM) 99% | viability, T/C (second compound 0.0316 µM, first compound 1 µM) 87.8% | viability, T/C (second compound 0.0316 µM, first compound 3.16 µM) 99.6% | viability, T/C (second compound 0.0316 µM, first compound 10 µM) 74.8% | viability, T/C (second compound 0.1 µM, first compound 0.0316 µM) 98.8% | viability, T/C (second compound 0.1 µM, first compound 0.1 µM) 72.2% | viability, T/C (second compound 0.1 µM, first compound 0.316 µM) 73.4% | viability, T/C (second compound 0.1 µM, first compound 1 µM) 80.1% | viability, T/C (second compound 0.1 µM, first compound 3.16 µM) 103% | viability, T/C (second compound 0.1 µM, first compound 10 µM) 89.4% | viability, T/C (second compound 0.316 µM, first compound 0.0316 µM) 90.5% | viability, T/C (second compound 0.316 µM, first compound 0.1 µM) 71.2% | viability, T/C (second compound 0.316 µM, first compound 0.316 µM) 80.3% | viability, T/C (second compound 0.316 µM, first compound 1 µM) 97.8% | viability, T/C (second compound 0.316 µM, first compound 3.16 µM) 86% | viability, T/C (second compound 0.316 µM, first compound 10 µM) 84.5% | viability, T/C (second compound 1 µM, first compound 0.0316 µM) 74.2% | viability, T/C (second compound 1 µM, first compound 0.1 µM) 84.7% | viability, T/C (second compound 1 µM, first compound 0.316 µM) 69.5% | viability, T/C (second compound 1 µM, first compound 1 µM) 82.7% | viability, T/C (second compound 1 µM, first compound 3.16 µM) 82.8% | viability, T/C (second compound 1 µM, first compound 10 µM) 77.8% | viability, T/C (second compound 3.16 µM, first compound 0.0316 µM) 63.4% | viability, T/C (second compound 3.16 µM, first compound 0.1 µM) 65.7% | viability, T/C (second compound 3.16 µM, first compound 0.316 µM) 61.1% | viability, T/C (second compound 3.16 µM, first compound 1 µM) 54% | viability, T/C (second compound 3.16 µM, first compound 3.16 µM) 54.2% | viability, T/C (second compound 3.16 µM, first compound 10 µM) 60.8% | viability, T/C (second compound 10 µM, first compound 0.0316 µM) 38.4% | viability, T/C (second compound 10 µM, first compound 0.1 µM) 40.4% | viability, T/C (second compound 10 µM, first compound 0.316 µM) 40.8% | viability, T/C (second compound 10 µM, first compound 1 µM) 31.7% | viability, T/C (second compound 10 µM, first compound 3.16 µM) 33% | viability, T/C (second compound 10 µM, first compound 10 µM) 40.1%

C[C@@H](NC(=O)c1ncnc(N)c1Cl)c1ncc(C(=O)Nc2cc(C(F)(F)F)c(Cl)cn2)s1
inactive: viability, T/C (compound 0.0316 µM) 93.7% [middle of 4 runs] | viability, T/C (compound 0.316 µM) 89.2% and 106% (2×) and 91.6% | viability, T/C (compound 3.16 µM) 99.1% [middle of 4 runs] | viability, T/C (compound 10 µM) 91% [middle of 4 runs]
> 10 µM: IC50 (curve of compound)
